One test concerns PC-3. Nature of the test: cells. It counts as functional, cell-based. The following applies: Homo sapiens.
In a further test the test system is A549. Kind of test: cells. It counts as functional, cell-based. The following applies: Homo sapiens.
The test system of a further test is HL-60. Nature of the test: cells. The following applies: Homo sapiens.
A further test deals with MDA-MB-231. Kind of test: Antiproliferative activity against human MDA-MB-231 cells assessed as inhibition of cell growth by MTT assay. In kind it is functional, cell-based. For orientation: Tetrazolium dyes change colour on reduction, which living cells bring about.
Another test concerns MOLT-4. Nature of the test: cells. The following applies: Homo sapiens. It counts as functional, cell-based.
For the next test, the system named is K562. Nature of the test: cells. The following applies: Homo sapiens.
The subject of the next test is HH. Kind of test: cells. In kind it is functional, cell-based. The following applies: Homo sapiens.
The next test deals with FaDu. Nature of the test: cells. The following applies: Homo sapiens. It counts as functional, cell-based.
The test system of another test is SiHa. Kind of test: cells. In kind it is functional, cell-based. Particulars: Homo sapiens.
For another test, the target named is Histone deacetylase 2 (Homo sapiens, UniProt Q92769). Nature of the test: Inhibition of HDAC2 (unknown origin).
The target of a further test is Histone deacetylase 3 (Homo sapiens, UniProt O15379). Nature of the test: Inhibition of HDAC3 (unknown origin) using p53 residues 379 to 382 [RHKK(Ac)] as fluorogenic substrate.
The target of another test is Histone deacetylase 1 (Homo sapiens, UniProt Q13547). Kind of test: Inhibition of HDAC1 (unknown origin) using p53 residues 379 to 382 [RHKK(Ac)] as fluorogenic substrate.

A value given as a limit tells only on which side of the number the result lay.

These results are taken from ChEMBL document CHEMBL5550160, “Leveraging a rationally designed veliparib-based anilide eliciting anti-leukemic effects for the design of pH-responsive polymer nanoformulation” (Eur J Med Chem, 2024).

For orientation: IC50 means the concentration that gives 50% inhibition.

Chain of Histone deacetylase 1 (Q13547 whole entry, the tested form may be a part): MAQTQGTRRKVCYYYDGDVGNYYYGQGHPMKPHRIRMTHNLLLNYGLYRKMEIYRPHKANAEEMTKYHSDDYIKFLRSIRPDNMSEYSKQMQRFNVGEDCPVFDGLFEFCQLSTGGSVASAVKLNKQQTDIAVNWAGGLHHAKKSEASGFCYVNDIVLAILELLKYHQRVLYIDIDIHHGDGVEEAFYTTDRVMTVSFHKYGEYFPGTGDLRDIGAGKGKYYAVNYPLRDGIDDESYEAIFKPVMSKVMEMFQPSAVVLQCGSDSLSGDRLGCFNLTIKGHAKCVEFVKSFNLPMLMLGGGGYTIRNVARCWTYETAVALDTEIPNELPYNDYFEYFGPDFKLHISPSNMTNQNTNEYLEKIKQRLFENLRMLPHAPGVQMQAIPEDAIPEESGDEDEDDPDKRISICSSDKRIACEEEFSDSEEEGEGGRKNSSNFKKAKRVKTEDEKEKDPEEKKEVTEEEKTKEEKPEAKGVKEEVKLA
Chain of Histone deacetylase 3 (O15379 whole entry, the tested form may be a part): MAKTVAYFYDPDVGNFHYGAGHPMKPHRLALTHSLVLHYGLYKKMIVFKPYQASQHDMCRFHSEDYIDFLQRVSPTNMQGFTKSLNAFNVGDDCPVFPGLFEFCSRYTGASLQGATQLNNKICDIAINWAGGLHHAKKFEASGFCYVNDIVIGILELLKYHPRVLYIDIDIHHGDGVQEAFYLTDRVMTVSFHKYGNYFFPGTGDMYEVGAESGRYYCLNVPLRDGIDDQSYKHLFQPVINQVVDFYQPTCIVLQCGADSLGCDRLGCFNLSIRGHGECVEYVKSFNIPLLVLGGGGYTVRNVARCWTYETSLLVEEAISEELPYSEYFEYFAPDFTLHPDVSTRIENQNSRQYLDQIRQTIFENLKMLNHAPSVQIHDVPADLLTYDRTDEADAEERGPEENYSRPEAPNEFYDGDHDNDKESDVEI
Chain of Histone deacetylase 2 (Q92769 whole entry, the tested form may be a part): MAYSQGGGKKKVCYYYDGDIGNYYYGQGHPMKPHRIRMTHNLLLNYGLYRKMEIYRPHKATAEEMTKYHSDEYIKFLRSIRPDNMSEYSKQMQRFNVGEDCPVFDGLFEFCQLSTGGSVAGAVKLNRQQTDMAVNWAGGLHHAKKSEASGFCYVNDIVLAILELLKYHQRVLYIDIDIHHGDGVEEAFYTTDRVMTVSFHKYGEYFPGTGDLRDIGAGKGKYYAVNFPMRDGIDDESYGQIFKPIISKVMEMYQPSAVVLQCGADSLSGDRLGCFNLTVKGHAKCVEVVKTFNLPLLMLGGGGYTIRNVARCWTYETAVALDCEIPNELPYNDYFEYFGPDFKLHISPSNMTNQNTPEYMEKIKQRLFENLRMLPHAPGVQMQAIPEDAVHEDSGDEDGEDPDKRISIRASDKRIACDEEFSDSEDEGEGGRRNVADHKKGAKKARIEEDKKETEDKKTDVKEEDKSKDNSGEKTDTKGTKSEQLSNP
Description for A549: Antiproliferative activity against human A549 cells assessed as inhibition of cell growth by MTT assay
Description for FaDu: Antiproliferative activity against human FaDu cells assessed as inhibition of cell growth by MTT assay
Description for HH: Antiproliferative activity against human HH cells assessed as inhibition of cell growth by MTT assay
Description for HL-60: Antiproliferative activity against human HL-60 cells assessed as inhibition of cell growth by MTT assay
Description for K562: Antiproliferative activity against human K562 cells assessed as inhibition of cell growth by MTT assay
Description for MOLT-4: Antiproliferative activity against human MOLT-4 cells assessed as inhibition of cell growth by MTT assay
Description for PC-3: Antiproliferative activity against human PC-3 cells assessed as inhibition of cell growth by MTT assay
Description for SiHa: Antiproliferative activity against human SiHa cells assessed as inhibition of cell growth by MTT assay

Consider `NC(=O)c1cccc2[nH]c(-c3ccc(NC(=O)CCC(=O)NO)cc3)nc12`, for which the IC50 with PC-3 was more than 10 µM; in the test on A549 it was more than 10 µM; in the test with HL-60, 7.89 µM.

Consider `C[C@]1(c2nc3c(C(N)=O)cccc3[nH]2)CCCN1` [VELIPARIB], for which the IC50 in the test on MDA-MB-231, with MOLT-4, with K562, in the test with HH, in the test on PC-3 and in the test with A549 was more than 10 µM in each case. The IC50 with FaDu, in the test on HL-60 and with SiHa was more than 10 µM throughout.

On to `NC(=O)c1cccc2[nH]c(-c3ccc(NC(=O)CCCCCCCC(=O)Nc4ccccc4N)cc3)nc12`, for which the IC50 in the test with PC-3 was more than 10 µM; in the test on A549, more than 10 µM; in the test on HL-60, 4.92 µM.

Take `NC(=O)c1cccc2[nH]c(-c3ccc(NC(=O)CCCCCCC(=O)Nc4ccccc4N)cc3)nc12`: the IC50 in the test on PC-3 is 3.45 µM; with A549, 2.99 µM; in the test with HL-60 it was 1.04 µM.

`NC(=O)c1cccc2[nH]c(-c3ccc(NCc4ccc(/C=C/C(=O)NO)cc4)cc3)nc12`: the IC50 in the test with PC-3 was found to be 1.99 µM; in the test on A549 it was 2.03 µM; with HL-60, 5.99 µM.

As to `Nc1ccccc1NC(=O)c1ccc(CNC(=O)OCc2ccccc2)cc1`, the IC50 in the test on MOLT-4 was 5.67 µM; in the test on K562, 4.21 µM; at Histone deacetylase 2, 0.613 µM; against Histone deacetylase 3, 0.624 µM; at Histone deacetylase 1, 0.544 µM; in the test on HH it was 4.98 µM. In addition, the IC50 in the test with PC-3 was determined as 5.21 µM; in the test on A549 it was 3.45 µM; in the test on HL-60, 2.98 µM.

Consider `NC(=O)c1cccc2[nH]c(-c3ccc(NCc4ccc(/C=C/C(=O)Nc5ccccc5N)cc4)cc3)nc12`, for which the IC50 was more than 10 µM in the test with PC-3, more than 10 µM with A549 and 3.65 µM in the test on HL-60.

With `NC(=O)c1cccc2[nH]c(-c3ccc(NC(=O)CCCC(=O)Nc4ccccc4N)cc3)nc12`, the IC50 was more than 10 µM in the test with PC-3, more than 10 µM in the test on A549 and 3.21 µM with HL-60.

For `NC(=O)c1cccc2[nH]c(-c3ccc(NC(=O)CCCCCCCCC(=O)Nc4ccccc4N)cc3)nc12`, the IC50 is more than 10 µM in the test with PC-3, more than 10 µM with A549 and 7.96 µM with HL-60.

As for `NC(=O)c1cccc2[nH]c(-c3ccc(NC(=O)CCCCCC(=O)Nc4ccccc4N)cc3)nc12`, the IC50 in the test on PC-3 is more than 10 µM; in the test on A549, 4.32 µM; in the test on HL-60, 2.43 µM.

As to `NC(=O)c1cccc2[nH]c(-c3ccc(NC(=O)CCCCC(=O)NO)cc3)nc12`, the figures for the IC50 in the test with PC-3, in the test on A549 and in the test with HL-60 were 2.44 µM, 6.98 µM and 5.45 µM, respectively.

For the molecule `NC(=O)c1cccc2[nH]c(-c3ccc(NCc4ccc(C(=O)NO)cc4)cc3)nc12`, the values for the IC50 in the test with PC-3, with A549 and with HL-60 were 2.34 µM, 2.31 µM and 1.23 µM, respectively.

As to `NC(=O)c1cccc2[nH]c(-c3ccc(NC(=O)CCC(=O)Nc4ccccc4N)cc3)nc12`, the IC50 with PC-3 is more than 10 µM; with A549 it was more than 10 µM; in the test with HL-60, 3.75 µM.

As to `NC(=O)c1cccc2[nH]c(-c3ccc(NC(=O)CCCCCCC(=O)NO)cc3)nc12`, the IC50 with PC-3 was 1.87 µM; in the test with A549, 2.11 µM; in the test with HL-60, 3.21 µM.

On to `NC(=O)c1cccc2[nH]c(-c3ccc(NC(=O)CCCCCCCC(=O)NO)cc3)nc12`, for which the results for the IC50 in the test with PC-3, with A549 and with HL-60 were 7.65 µM, more than 10 µM and more than 10 µM, respectively.

With `NC(=O)c1cccc2[nH]c(-c3ccc(NC(=O)CCCCC(=O)Nc4ccccc4N)cc3)nc12`, the IC50 is 4.76 µM in the test on PC-3, more than 10 µM in the test on A549 and 2.93 µM in the test with HL-60.

For `NC(=O)c1cccc2[nH]c(-c3ccc(NC(=O)CCCCCCCCC(=O)NO)cc3)nc12`, the IC50 in the test on PC-3 was 8.91 µM; in the test with A549, more than 10 µM; in the test with HL-60 it was more than 10 µM.

For `NC(=O)c1cccc2[nH]c(-c3ccc(NC(=O)CCCCCC(=O)NO)cc3)nc12`, the IC50 is 2.32 µM in the test on PC-3, 5.41 µM with A549 and 8.76 µM in the test on HL-60.

Consider `NC(=O)c1cccc2[nH]c(-c3ccc(NC(=O)CCCC(=O)NO)cc3)nc12`, for which the IC50 with PC-3, in the test on A549 and with HL-60 was more than 10 µM in each case.
